From patent US11684607B2, “Secnidazole for use in the treatment of bacterial vaginosis” (priority 2014, dated 2023)

Test system: bacterial vaginosis
Assay: Telephone diary questionnaire on vaginal discharge and odor (five point scale), mITT population
Type: in vivo, human
Conditions: for proportion of women reporting 3-5 for vaginal discharge / proportion of women reporting 3-5 for vaginal odor / proportion of women reporting 4-5 for vaginal discharge / proportion of women reporting 4-5 for vaginal odor: 2 g dose; for Discharge 1 point (Normal/Not an Issue): number of women / Discharge 1 point (Normal/Not an Issue): proportion of women / Discharge 2 points (Mildly Abnormal): number of women / Discharge 2 points (Mildly Abnormal): proportion of women / Discharge 3 points (Moderately Abnormal): number of women / Discharge 3 points (Moderately Abnormal): proportion of women / Discharge 4 points (Severely Abnormal): number of women / Discharge 4 points (Severely Abnormal): proportion of women / Discharge 5 points (Very Severely Abnormal): number of women / Discharge 5 points (Very Severely Abnormal): proportion of women / Odor 1 point (Normal/Not an Issue): number of women / Odor 1 point (Normal/Not an Issue): proportion of women / Odor 2 points (Mildly Abnormal): number of women / Odor 2 points (Mildly Abnormal): proportion of women / Odor 3 points (Moderately Abnormal): number of women / Odor 3 points (Moderately Abnormal): proportion of women / Odor 4 points (Severely Abnormal): number of women / Odor 4 points (Severely Abnormal): proportion of women / Odor 5 points (Very Severely Abnormal): number of women / Odor 5 points (Very Severely Abnormal): proportion of women: 2 g

Cc1ncc([N+](=O)[O-])n1CC(C)O (stereo not shown) [SYM-1219, 1-(2-hydroxypropyl)-2-methyl-5-nitromidazole]
proportion of women reporting 3-5 for vaginal discharge (day 1): 59%
proportion of women reporting 3-5 for vaginal odor (day 1): 66%
proportion of women reporting 4-5 for vaginal discharge (day 1): 36%
proportion of women reporting 4-5 for vaginal odor (day 1): 38%
proportion of women reporting 3-5 for vaginal discharge (day 3 (~48 hours)): 30%
proportion of women reporting 3-5 for vaginal odor (day 3 (~48 hours)): 20%
proportion of women reporting 4-5 for vaginal discharge (day 3 (~48 hours)): 11%
proportion of women reporting 4-5 for vaginal odor (day 3 (~48 hours)): 9%
proportion of women reporting 3-5 for vaginal discharge (day 7): 14%
proportion of women reporting 3-5 for vaginal odor (day 7): 9%
proportion of women reporting 4-5 for vaginal discharge (day 7): 0%
proportion of women reporting 4-5 for vaginal odor (day 7): 0%
Discharge 1 point (Normal/Not an Issue): number of women (Day 1): 6
Discharge 1 point (Normal/Not an Issue): proportion of women (Day 1): 10%
Discharge 2 points (Mildly Abnormal): number of women (Day 1): 18
Discharge 2 points (Mildly Abnormal): proportion of women (Day 1): 31%
Discharge 3 points (Moderately Abnormal): number of women (Day 1): 13
Discharge 3 points (Moderately Abnormal): proportion of women (Day 1): 22%
Discharge 4 points (Severely Abnormal): number of women (Day 1): 17
Discharge 4 points (Severely Abnormal): proportion of women (Day 1): 29%
Discharge 5 points (Very Severely Abnormal): number of women (Day 1): 4
Discharge 5 points (Very Severely Abnormal): proportion of women (Day 1): 7%
Odor 1 point (Normal/Not an Issue): number of women (Day 1): 8
Odor 1 point (Normal/Not an Issue): proportion of women (Day 1): 14%
Odor 2 points (Mildly Abnormal): number of women (Day 1): 12
Odor 2 points (Mildly Abnormal): proportion of women (Day 1): 21%
Odor 3 points (Moderately Abnormal): number of women (Day 1): 16
Odor 3 points (Moderately Abnormal): proportion of women (Day 1): 28%
Odor 4 points (Severely Abnormal): number of women (Day 1): 17
Odor 4 points (Severely Abnormal): proportion of women (Day 1): 29%
Odor 5 points (Very Severely Abnormal): number of women (Day 1): 5
Odor 5 points (Very Severely Abnormal): proportion of women (Day 1): 9%
Discharge 1 point (Normal/Not an Issue): number of women (Day 2): 9
Discharge 1 point (Normal/Not an Issue): proportion of women (Day 2): 17%
Discharge 2 points (Mildly Abnormal): number of women (Day 2): 20
Discharge 2 points (Mildly Abnormal): proportion of women (Day 2): 38%
Discharge 3 points (Moderately Abnormal): number of women (Day 2): 15
Discharge 3 points (Moderately Abnormal): proportion of women (Day 2): 29%
Discharge 4 points (Severely Abnormal): number of women (Day 2): 3
Discharge 4 points (Severely Abnormal): proportion of women (Day 2): 6%
Discharge 5 points (Very Severely Abnormal): number of women (Day 2): 5
Discharge 5 points (Very Severely Abnormal): proportion of women (Day 2): 10%
Odor 1 point (Normal/Not an Issue): number of women (Day 2): 10
Odor 1 point (Normal/Not an Issue): proportion of women (Day 2): 19%
Odor 2 points (Mildly Abnormal): number of women (Day 2): 23
Odor 2 points (Mildly Abnormal): proportion of women (Day 2): 44%
Odor 3 points (Moderately Abnormal): number of women (Day 2): 10
Odor 3 points (Moderately Abnormal): proportion of women (Day 2): 19%
Odor 4 points (Severely Abnormal): number of women (Day 2): 8
Odor 4 points (Severely Abnormal): proportion of women (Day 2): 15%
Odor 5 points (Very Severely Abnormal): number of women (Day 2): 1
Odor 5 points (Very Severely Abnormal): proportion of women (Day 2): 2%
Discharge 1 point (Normal/Not an Issue): number of women (Day 3): 13
Discharge 1 point (Normal/Not an Issue): proportion of women (Day 3): 24%
Discharge 2 points (Mildly Abnormal): number of women (Day 3): 25
Discharge 2 points (Mildly Abnormal): proportion of women (Day 3): 46%
Discharge 3 points (Moderately Abnormal): number of women (Day 3): 10
Discharge 3 points (Moderately Abnormal): proportion of women (Day 3): 19%
Discharge 4 points (Severely Abnormal): number of women (Day 3): 3
Discharge 4 points (Severely Abnormal): proportion of women (Day 3): 6%
Discharge 5 points (Very Severely Abnormal): number of women (Day 3): 3
Discharge 5 points (Very Severely Abnormal): proportion of women (Day 3): 6%
Odor 1 point (Normal/Not an Issue): number of women (Day 3): 20
Odor 1 point (Normal/Not an Issue): proportion of women (Day 3): 37%
Odor 2 points (Mildly Abnormal): number of women (Day 3): 23
Odor 2 points (Mildly Abnormal): proportion of women (Day 3): 43%
Odor 3 points (Moderately Abnormal): number of women (Day 3): 6
Odor 3 points (Moderately Abnormal): proportion of women (Day 3): 11%
Odor 4 points (Severely Abnormal): number of women (Day 3): 4
Odor 4 points (Severely Abnormal): proportion of women (Day 3): 7%
Odor 5 points (Very Severely Abnormal): number of women (Day 3): 1
Odor 5 points (Very Severely Abnormal): proportion of women (Day 3): 2%
Discharge 1 point (Normal/Not an Issue): number of women (Day 4): 19
Discharge 1 point (Normal/Not an Issue): proportion of women (Day 4): 35%
Discharge 2 points (Mildly Abnormal): number of women (Day 4): 22
Discharge 2 points (Mildly Abnormal): proportion of women (Day 4): 40%
Discharge 3 points (Moderately Abnormal): number of women (Day 4): 8
Discharge 3 points (Moderately Abnormal): proportion of women (Day 4): 15%
Discharge 4 points (Severely Abnormal): number of women (Day 4): 5
Discharge 4 points (Severely Abnormal): proportion of women (Day 4): 9%
Discharge 5 points (Very Severely Abnormal): number of women (Day 4): 1
Discharge 5 points (Very Severely Abnormal): proportion of women (Day 4): 2%
Odor 1 point (Normal/Not an Issue): number of women (Day 4): 27
Odor 1 point (Normal/Not an Issue): proportion of women (Day 4): 49%
Odor 2 points (Mildly Abnormal): number of women (Day 4): 18
Odor 2 points (Mildly Abnormal): proportion of women (Day 4): 33%
Odor 3 points (Moderately Abnormal): number of women (Day 4): 6
Odor 3 points (Moderately Abnormal): proportion of women (Day 4): 11%
Odor 4 points (Severely Abnormal): number of women (Day 4): 4
Odor 4 points (Severely Abnormal): proportion of women (Day 4): 7%
Odor 5 points (Very Severely Abnormal): number of women (Day 4): 0
Odor 5 points (Very Severely Abnormal): proportion of women (Day 4): 0%
Discharge 1 point (Normal/Not an Issue): number of women (Day 5): 21
Discharge 1 point (Normal/Not an Issue): proportion of women (Day 5): 43%
Discharge 2 points (Mildly Abnormal): number of women (Day 5): 17
Discharge 2 points (Mildly Abnormal): proportion of women (Day 5): 35%
Discharge 3 points (Moderately Abnormal): number of women (Day 5): 4
Discharge 3 points (Moderately Abnormal): proportion of women (Day 5): 8%
Discharge 4 points (Severely Abnormal): number of women (Day 5): 6
Discharge 4 points (Severely Abnormal): proportion of women (Day 5): 12%
Discharge 5 points (Very Severely Abnormal): number of women (Day 5): 1
Discharge 5 points (Very Severely Abnormal): proportion of women (Day 5): 2%
Odor 1 point (Normal/Not an Issue): number of women (Day 5): 28
Odor 1 point (Normal/Not an Issue): proportion of women (Day 5): 58%
Odor 2 points (Mildly Abnormal): number of women (Day 5): 12
Odor 2 points (Mildly Abnormal): proportion of women (Day 5): 25%
Odor 3 points (Moderately Abnormal): number of women (Day 5): 5
Odor 3 points (Moderately Abnormal): proportion of women (Day 5): 10%
Odor 4 points (Severely Abnormal): number of women (Day 5): 3
Odor 4 points (Severely Abnormal): proportion of women (Day 5): 6%
Odor 5 points (Very Severely Abnormal): number of women (Day 5): 0
Odor 5 points (Very Severely Abnormal): proportion of women (Day 5): 0%
Discharge 1 point (Normal/Not an Issue): number of women (Day 6): 22
Discharge 1 point (Normal/Not an Issue): proportion of women (Day 6): 47%
Discharge 2 points (Mildly Abnormal): number of women (Day 6): 15
Discharge 2 points (Mildly Abnormal): proportion of women (Day 6): 32%
Discharge 3 points (Moderately Abnormal): number of women (Day 6): 7
Discharge 3 points (Moderately Abnormal): proportion of women (Day 6): 15%
Discharge 4 points (Severely Abnormal): number of women (Day 6): 2
Discharge 4 points (Severely Abnormal): proportion of women (Day 6): 4%
Discharge 5 points (Very Severely Abnormal): number of women (Day 6): 1
Discharge 5 points (Very Severely Abnormal): proportion of women (Day 6): 2%
Odor 1 point (Normal/Not an Issue): number of women (Day 6): 29
Odor 1 point (Normal/Not an Issue): proportion of women (Day 6): 62%
Odor 2 points (Mildly Abnormal): number of women (Day 6): 12
Odor 2 points (Mildly Abnormal): proportion of women (Day 6): 26%
Odor 3 points (Moderately Abnormal): number of women (Day 6): 5
Odor 3 points (Moderately Abnormal): proportion of women (Day 6): 11%
Odor 4 points (Severely Abnormal): number of women (Day 6): 1
Odor 4 points (Severely Abnormal): proportion of women (Day 6): 2%
Odor 5 points (Very Severely Abnormal): number of women (Day 6): 0
Odor 5 points (Very Severely Abnormal): proportion of women (Day 6): 0%
Discharge 1 point (Normal/Not an Issue): number of women (Day 7): 24
Discharge 1 point (Normal/Not an Issue): proportion of women (Day 7): 55%
Discharge 2 points (Mildly Abnormal): number of women (Day 7): 14
Discharge 2 points (Mildly Abnormal): proportion of women (Day 7): 32%
Discharge 3 points (Moderately Abnormal): number of women (Day 7): 6
Discharge 3 points (Moderately Abnormal): proportion of women (Day 7): 14%
Discharge 4 points (Severely Abnormal): number of women (Day 7): 0
Discharge 4 points (Severely Abnormal): proportion of women (Day 7): 0%
Discharge 5 points (Very Severely Abnormal): number of women (Day 7): 0
Discharge 5 points (Very Severely Abnormal): proportion of women (Day 7): 0%
Odor 1 point (Normal/Not an Issue): number of women (Day 7): 33
Odor 1 point (Normal/Not an Issue): proportion of women (Day 7): 75%
Odor 2 points (Mildly Abnormal): number of women (Day 7): 7
Odor 2 points (Mildly Abnormal): proportion of women (Day 7): 16%
Odor 3 points (Moderately Abnormal): number of women (Day 7): 4
Odor 3 points (Moderately Abnormal): proportion of women (Day 7): 9%
Odor 4 points (Severely Abnormal): number of women (Day 7): 0
Odor 4 points (Severely Abnormal): proportion of women (Day 7): 0%
Odor 5 points (Very Severely Abnormal): number of women (Day 7): 0
Odor 5 points (Very Severely Abnormal): proportion of women (Day 7): 0%
Discharge 1 point (Normal/Not an Issue): number of women (EOS): 36
Discharge 1 point (Normal/Not an Issue): proportion of women (EOS): 68%
Discharge 2 points (Mildly Abnormal): number of women (EOS): 9
Discharge 2 points (Mildly Abnormal): proportion of women (EOS): 17%
Discharge 3 points (Moderately Abnormal): number of women (EOS): 4
Discharge 3 points (Moderately Abnormal): proportion of women (EOS): 8%
Discharge 4 points (Severely Abnormal): number of women (EOS): 3
Discharge 4 points (Severely Abnormal): proportion of women (EOS): 6%
Discharge 5 points (Very Severely Abnormal): number of women (EOS): 1
Discharge 5 points (Very Severely Abnormal): proportion of women (EOS): 2%
Odor 1 point (Normal/Not an Issue): number of women (EOS): 36
Odor 1 point (Normal/Not an Issue): proportion of women (EOS): 69%
Odor 2 points (Mildly Abnormal): number of women (EOS): 7
Odor 2 points (Mildly Abnormal): proportion of women (EOS): 13%
Odor 3 points (Moderately Abnormal): number of women (EOS): 9
Odor 3 points (Moderately Abnormal): proportion of women (EOS): 17%
Odor 4 points (Severely Abnormal): number of women (EOS): 0
Odor 4 points (Severely Abnormal): proportion of women (EOS): 0%
Odor 5 points (Very Severely Abnormal): number of women (EOS): 0
Odor 5 points (Very Severely Abnormal): proportion of women (EOS): 0%
